{"source": "patent US6008189A", "about": "“Intravaginal preparation containing physiologically active peptide” (Teikoku Seiyaku Kabushiki Kaisha, priority 1993, dated 1999)", "format_in_all_cases": "in vivo, rat", "key": {"[1]": {"system": "Ovariectomized female Wistar rats", "test": "Experiment 1: serum calcium reduction after intravaginal suppository, sucrose fatty acid ester plus citric acid versus each alone", "settings": "20 μg intravaginal", "experimental": "To the mixture was added a commercially available base for intravaginal preparation; Witepsol S-55 (which is prepared from Witepsol E-85 so as to give a final intravaginal suppository having a melting point of 36.5° C., manufactured by Hils Co., Ltd., former Diamit Novel Co., Ltd) which was homogenized by previously warming and stirring thereof so as to give an intravaginal suppository with the total weight of 5.00 g. […] The mixture was poured into a tube (inside diameter: about 3 mm) made of teflon at about 40° C., cooled to solidify, and taken out from the tube. The solidified mixture was cut into pieces (weight: 50 mg) to give intravaginal suppositories for rats containing human calcitonin (20 μg/each). There were also obtained two kinds of intravaginal suppositories prepared by adding citric acid (50 mg) only, and prepared by adding a sucrose fatty acid ester (100 mg) only, likewise. There were obtained intravaginal suppositories containing only human calcitonin without citric acid nor a sucrose fatty acid ester, likewise, which are used as control.\n(§1) An intravaginal suppository was administered into the rat's vagina, and the blood was collected periodically (2, 4 and 6 hours after administration of the test preparation).\n(§2) The serum was separated, and the calcium level in the serum was determined by using a kit for determination of calcium (Calcium C Test Wako; manufactured by Wako Pure Chemical Industries, Ltd.) (n=3)."}, "[2]": {"system": "Ovariectomized female Wistar rats", "test": "Experiment 2: serum calcium reduction, effect of various suppository bases", "settings": "S-970 and citric acid, 20 μg intravaginal", "experimental": "as §1, §2\n(§3) In the same manner as in Experiment 1, each intravaginal suppository was administered to the rat's vagina, and the blood was collected periodically (2, 4 and 6 hours after administration of intravaginal suppository), and the calcium level in the serum thereof was determined (n=4)."}, "[3]": {"system": "Ovariectomized female Wistar rats", "test": "Experiment 3: serum calcium reduction, effect of various sucrose fatty acid esters", "settings": "with citric acid, 20 μg intravaginal", "experimental": "as §1, §2\nIn the same manner, there were prepared various sucrose fatty acid esters having the same HLB value but being combined with a different fatty acid (Table B), and four kinds of intravaginal suppositories for rats were prepared by using each 100 mg of sucrose fatty acid ester.\nas §3"}, "[4]": {"system": "Ovariectomized female Wistar rats", "test": "Experiment 4: serum calcium reduction, effect of sucrose fatty acid ester concentration", "settings": "sucrose fatty acid ester (S-970) 2 w/w % of suppository; citric acid 100 mg per 5.00 g; 20 μg intravaginal; 2 hr", "experimental": "as §1, §2\nHuman calcitonin (2 mg) was precisely measured, and thereto were added citric acid (100 mg) and Ryoto-Sugar Ester S-970 (50 mg, 100 mg or 400 mg), and the mixture was mixed well.\nIn the same manner as in Experiment 1, each intravaginal suppository was administered to the rat's vagina, and the blood was collected periodically (2 and 4 hours after administration of intravaginal suppository), and the calcium level in the serum thereof was determined (n=3)."}, "[5]": {"system": "Ovariectomized female Wistar rats", "test": "Experiment 5: serum calcium reduction, sucrose fatty acid ester with various organic acids", "settings": "20 μg intravaginal", "experimental": "as §1, §2\nIn the same manner as in Experiment 1, each intravaginal suppository was administered to the rat's vagina, and the blood was collected periodically (2, 4 and 6 hours after administration of intravaginal suppository), and the calcium level in the serum thereof was determined (n=5)."}, "[6]": {"system": "Ovariectomized female Wistar rats", "test": "Experiment 6: serum calcium reduction, effect of organic acid concentration", "settings": "pH 3.5, S-970 100 mg per 5.00 g, 20 μg intravaginal", "experimental": "as §1, §2\n(§4) In the same manner as in Experiment 1, each intravaginal suppository was administered to the rat's vagina, and the blood was collected periodically (2, 4 and 6 hours after administration of intravaginal suppository), and the calcium level in the serum thereof was determined (n=3)."}, "[7]": {"system": "Ovariectomized female Wistar rats", "test": "Experiment 7: serum calcium reduction, effect of pH of the solution in the suppository", "settings": "citric acid and S-970, 20 μg intravaginal", "experimental": "as §1, §2, §4"}}, "data": [{"substance": "Human calcitonin", "values": [{"measurement": "Reduction rate (%) of calcium level in the serum", "setting": "[1]; Control: suppository with human calcitonin only, no citric acid nor ester, 2 hr", "value": 2.6, "unit": "%"}, {"measurement": "Reduction rate (%) of calcium level in the serum", "setting": "[1]; Control: suppository with human calcitonin only, no citric acid nor ester, 4 hr", "value": 2.2, "unit": "%"}, {"measurement": "Reduction rate (%) of calcium level in the serum", "setting": "[1]; Control: suppository with human calcitonin only, no citric acid nor ester, 6 hr", "value": 3.8, "unit": "%"}, {"measurement": "Reduction rate (%) of calcium level in the serum", "setting": "[1]; suppository with citric acid only, 2 hr", "value": 9.5, "unit": "%"}, {"measurement": "Reduction rate (%) of calcium level in the serum", "setting": "[1]; suppository with citric acid only, 4 hr", "value": 8.0, "unit": "%"}, {"measurement": "Reduction rate (%) of calcium level in the serum", "setting": "[1]; suppository with citric acid only, 6 hr", "value": 5.7, "unit": "%"}, {"measurement": "Reduction rate (%) of calcium level in the serum", "setting": "[2]; base Cacao butter, 6 hr", "value": 8.3, "unit": "%"}, {"measurement": "Reduction rate (%) of calcium level in the serum", "setting": "[2]; base Witepsol S-55, 6 hr", "value": 13.0, "unit": "%"}, {"measurement": "Reduction rate (%) of calcium level in the serum", "setting": "[2]; base Witepsol W-35, 2 hr", "value": 6.6, "unit": "%"}, {"measurement": "Reduction rate (%) of calcium level in the serum", "setting": "[3]; Ryoto-Sugar Ester (S-570), HLB 5, stearic acid, 6 hr", "value": 12.0, "unit": "%"}, {"measurement": "Reduction rate (%) of calcium level in the serum", "setting": "[3]; Ryoto-Sugar Ester L-595 + L-1695 3:2, HLB 9, lauric acid, 2 hr", "value": 11.0, "unit": "%"}, {"measurement": "Reduction rate (%) of calcium level in the serum", "setting": "[3]; Ryoto-Sugar Ester L-595 + L-1695 3:2, HLB 9, lauric acid, 6 hr", "value": 9.7, "unit": "%"}, {"measurement": "Reduction rate (%) of calcium level in the serum", "setting": "[3]; Ryoto-Sugar Ester P-070 + P-1670 4:5, HLB 9, palmitic acid, 2 hr", "value": 8.2, "unit": "%"}, {"measurement": "Reduction rate (%) of calcium level in the serum", "setting": "[3]; Ryoto-Sugar Ester S-370 + S-1670 5:6, HLB 9, stearic acid, 2 hr", "value": 6.9, "unit": "%"}, {"measurement": "Reduction rate (%) of calcium level in the serum", "setting": "[3]; Ryoto-Sugar Ester S-970 1:0 (control), HLB 9, stearic acid, 2 hr (Table 4)", "value": 6.3, "unit": "%"}, {"measurement": "Reduction rate (%) of calcium level in the serum", "setting": "[3]; Ryoto-Sugar Ester S-970 1:0 (control), HLB 9, stearic acid, 6 hr (Table 4)", "value": 11.0, "unit": "%"}, {"measurement": "Reduction rate (%) of calcium level in the serum", "setting": "[4]", "value": 8.0, "unit": "%"}, {"measurement": "Reduction rate (%) of calcium level in the serum", "setting": "[5]; organic acid Citric acid (pH 4) with Ryoto-Sugar Ester R-970, 6 hr", "value": 8.4, "unit": "%"}, {"measurement": "Reduction rate (%) of calcium level in the serum", "setting": "[5]; organic acid Lactic acid (pH 4) with Ryoto-Sugar Ester R-970, 2 hr", "value": 17.0, "unit": "%"}, {"measurement": "Reduction rate (%) of calcium level in the serum", "setting": "[5]; organic acid Lactic acid (pH 4) with Ryoto-Sugar Ester R-970, 6 hr", "value": 5.4, "unit": "%"}, {"measurement": "Reduction rate (%) of calcium level in the serum", "setting": "[5]; organic acid Malic acid (pH 4) with Ryoto-Sugar Ester R-970, 4 hr", "value": 13.0, "unit": "%"}, {"measurement": "Reduction rate (%) of calcium level in the serum", "setting": "[5]; organic acid Malic acid (pH 4) with Ryoto-Sugar Ester R-970, 6 hr", "value": 7.0, "unit": "%"}, {"measurement": "Reduction rate (%) of calcium level in the serum", "setting": "[5]; organic acid Tartaric acid (pH 4) with Ryoto-Sugar Ester R-970, 4 hr", "value": 8.0, "unit": "%"}, {"measurement": "Reduction rate (%) of calcium level in the serum", "setting": "[5]; organic acid Tartaric acid (pH 4) with Ryoto-Sugar Ester R-970, 6 hr", "value": 3.4, "unit": "%"}, {"measurement": "Reduction rate (%) of calcium level in the serum", "setting": "[6]; citric acid 1 w/w % of suppository, 6 hr", "value": 9.2, "unit": "%"}, {"measurement": "Reduction rate (%) of calcium level in the serum", "setting": "[6]; citric acid 2 w/w % of suppository, 6 hr", "value": 8.2, "unit": "%"}, {"measurement": "Reduction rate (%) of calcium level in the serum", "setting": "[6]; citric acid 5 w/w % of suppository, 6 hr", "value": 7.5, "unit": "%"}, {"measurement": "Reduction rate (%) of calcium level in the serum", "setting": "[6]; citric acid 10 w/w % of suppository, 4 hr", "value": 19.0, "unit": "%"}, {"measurement": "Reduction rate (%) of calcium level in the serum", "setting": "[6]; citric acid 10 w/w % of suppository, 6 hr", "value": 5.0, "unit": "%"}, {"measurement": "Reduction rate (%) of calcium level in the serum", "setting": "[7]; pH of the solution in suppository 3.0, 2 hr", "value": 11.0, "unit": "%"}, {"measurement": "Reduction rate (%) of calcium level in the serum", "setting": "[7]; pH of the solution in suppository 3.0, 4 hr", "value": 22.0, "unit": "%"}, {"measurement": "Reduction rate (%) of calcium level in the serum", "setting": "[7]; pH of the solution in suppository 3.0, 6 hr", "value": 8.7, "unit": "%"}, {"measurement": "Reduction rate (%) of calcium level in the serum", "setting": "[7]; pH of the solution in suppository 3.5, 2 hr", "value": 9.4, "unit": "%"}, {"measurement": "Reduction rate (%) of calcium level in the serum", "setting": "[7]; pH of the solution in suppository 3.5, 6 hr", "value": 8.8, "unit": "%"}, {"measurement": "Reduction rate (%) of calcium level in the serum", "setting": "[7]; pH of the solution in suppository 4.0, 2 hr", "value": 9.4, "unit": "%"}, {"measurement": "Reduction rate (%) of calcium level in the serum", "setting": "[7]; pH of the solution in suppository 4.5, 2 hr", "value": 9.5, "unit": "%"}, {"measurement": "Reduction rate (%) of calcium level in the serum", "setting": "[7]; pH of the solution in suppository 4.5, 6 hr", "value": 9.1, "unit": "%"}, {"measurement": "Reduction rate (%) of calcium level in the serum", "setting": "[7]; pH of the solution in suppository 5.0, 6 hr", "value": 2.7, "unit": "%"}, {"measurement": "Reduction rate (%) of calcium level in the serum", "setting": "[7]; pH of the solution in suppository 5.5, 2 hr", "value": 8.1, "unit": "%"}, {"measurement": "Reduction rate (%) of calcium level in the serum", "setting": "[7]; pH of the solution in suppository 5.5, 6 hr", "value": 4.3, "unit": "%"}]}]}
